Test results published in patent US20090081170A1, “Cardiac progenitor cells” (priority 2007, published 2009).

Tested on: adult heart explants (adult EPDCs)
Test: Adult epicardial explant culture: EPDC outgrowth and differentiation
Format: cell-based, mouse
Description: A simple protocol for the outgrowth and differentiation of vasculogenic precursor cells (endothelial and vascular smooth muscle cells) from adult heart using Thymosin β4 to stimulate epicardial cell migration is described below.
• 1. Coat 6-well plates with gelatin: pipette 2 ml 0.1% gelatin solution, allow to stand for 15 minutes and aspirate. Optionally, place coverslips into wells, prior to gelatin coating. • 2. Cull adult mouse by cervical dislocation. • 3. Using sterile forceps and scissors make a lateral incision in the centre of the abdomen and tear back the fur to expose the rib cage. • 4. Carefully cut upwards through the sternum and along the diaphragm, taking care not to cut into the heart. Pull back the ribs to reveal the heart. • 5. Remove the heart using forceps and dissect away the atria and major vessels, to leave right and left ventricles. • 6. Place tissue in a 60 mm tissue culture dish (non gelatin coated) containing 2 ml DPBS. Cut into quarters and allow blood to rinse from the tissue. Carefully aspirate away DPBS. Using a sterile scalpel, cut the heart into pieces of approximately 1 mm^3. Reproducible EPDC outgrowth strongly depends upon the size of the heart pieces (optimally 1 mm^3). Larger pieces will not adhere to permit sufficient migration while smaller pieces tend to dissociate completely and cardiomyocyte death precedes adherence and EPDC outgrowth. • 7. Divide heart pieces into 4 equal portions (1 adult heart is typically divided between 4 wells for optimal EPDC outgrowth). • 8. Pipette 2 ml of EPDC culture medium, supplemented with 100 ng/ml Tβ4, into each well to be used. • 9. Place 1 portion of heart tissue into the centre of each well and ensure that all pieces are submerged. • 10. Gently transfer the plate to a humidified 5% CO2 37° C. incubator. Maintain cultures with minimum disturbance to allow explants to adhere. No feeding is required for the first 72 hours. Minimal disturbance is absolutely essential for EPDC outgrowth. Explants adhere only tenuously in the first instance and disturbance in the first few days of culture will prevent adhesion or lead to detachment. Plates should be transferred extremely cautiously between incubator and microscope or culture hood. After sufficient EPDCs have emerged, explants attach more firmly but care is still required as detachment may easily occur. • 11. After 72 hours in culture, carefully transfer plate to culture hood, wash explants gently with DPBS and add 2 ml fresh EPDC medium containing 100 ng/ml Tβ4. Leave for a further 24 hours before assessment of cellular phenotype.
• 1. Culture adult heart explants as described above. • 2. After 72 hours of culture, fix cells with 4% PFA for 10 minutes at room temperature. • 3. Wash cells twice with PBS. • 4. Permeabilise cells with 0.5% Triton X-100 in PBS for 5 minutes at room temperature. • 5. Wash cells twice with PBS. • 6. Block non-specific binding by incubating cells in BLOCK (1% BSA/10% sheep serum in PBS) for 1 hour at room temperature. • 7. Incubate cells with an appropriate dilution of primary antibody (epicardin, 1:100; SMalphaA, 1:700; Flk1, 1:100), or Procollagen type I, 1:100), in BLOCK. • 8. Wash cells 3 times using BLOCK. • 9. Incubate cells with the appropriate secondary antibody (epicardin: Cy3-conjugated anti-rabbit; SMalphaA: FITC-conjugated anti-mouse, 1:30; Procollagen type I: Alexa 488-conjugated anti-goat, 1:200; Flk1: Alexa 594-conjugated anti-rat, 1:200) diluted in BLOCK. • 10. Wash cells twice in PBS. • 11. Optionally, to stain nuclei, incubate with 5 ug/ml Hoechst in PBS for 5 minutes at room temperature. • 12. Wash cells twice in PBS. • 13. Mount coverslips onto microscope slides using 50% glycerol in PBS as mountant and visualize using a fluorescence microscope. […]

Substance: Thymosin β4 [Tβ4]
- percentage incidence of myocardial progenitors (cells positive for Isl-1/Nkx2.5/Gata4) (Gata5-EYFP lineage trace explant cultures, mean +/− SEM, n=12 explants): 5.3+/−1.9%
- EPDCs positive for Tbx18 and Raldh2 (adult epicardial explants, immunofluorescence): significant number of proliferative, migrating EPDCs positive for Tbx18 and Raldh2
- differentiation of emerging epicardin-positive cells (adult explants, immunofluorescence): differentiated with migration into procollagen type I—, SMαA- and Flk1 (VEGF receptor)-positive cells
- EPDC outgrowth from adult heart explants (adult mouse heart explants, 8-12 weeks, vs untreated explants): stimulated extensive outgrowth of cells
